Laboratory results from PubChem BioAssay (NCI).
Values joined by “and” are separate entries in the source; they are usually repeats but may differ in a detail not shown here. Equal entries are not always repeated.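 All cell lines were grown in 96-well plates and treated with compound for 48 hours. Here, GI50 denotes the concentration required for 50% inhibition of growth. TGI: concentration producing complete growth inhibition.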

Experiments:
Assay in all cases: growth of human tumour cells (NCI), 48 h
[1] = test system: HCC-2998 colon
[2] = test system: HCT-116 colon
[3] = test system: HS 578T breast
[4] = test system: M14 melanoma
[5] = test system: MALME-3M melanoma
[6] = test system: SK-MEL-5 melanoma
[7] = test system: SK-OV-3 ovarian
[8] = test system: SNB-19 CNS
[9] = test system: SNB-75 CNS
[10] = test system: UO-31 renal

| Structure (SMILES) | GI50 [1] | TGI [1] | GI50 [2] | TGI [2] | GI50 [3] [µM] | TGI [3] | GI50 [4] | TGI [4] | GI50 [5] | TGI [5] | GI50 [6] | TGI [6] | GI50 [7] | TGI [7] | GI50 [8] [µM] | TGI [8] | GI50 [9] | TGI [9] | GI50 [10] | TGI [10] |
| --- | --- | --- | --- | --- | --- | --- | --- | --- | --- | --- | --- | --- | --- | --- | --- | --- | --- | --- | --- | --- |
| C/C(=C\c1csc(C)n1)[C@@H]1C[C@@H]2O[C@]2(C)CCC[C@H](C)[C@H](O)[C@@H](C)C(=O)C(C)(C)[C@@H](O)CC(=O)N1 | 0.000121 µM | 0.000243 µM | 9.17e-05 µM | 0.0003 µM | 8.61e-05 | 0.000226 µM | 0.00154 µM | 0.011 µM | 0.000376 µM | 0.000603 µM | 0.000137 µM | 0.000337 µM | 0.00477 µM | 0.0595 µM | 0.000347 | 0.000508 µM | 0.00161 µM | 0.048 µM | 0.000126 µM | 0.000177 µM |
| O=C1NC(=O)C2C3C=CC(C12)C1C2C(=O)NC(=O)C2C31 (stereo not drawn) | > 587 µM | 250 µM and > 1000 µM | > 39.9 µM and 308 µM | > 55.9 µM and 250 µM and > 1000 µM | 419 | 250 µM and > 562 µM | > 973 µM | 250 µM and > 1000 µM | > 785 µM | 250 µM and > 1000 µM | 389 µM | 224 µM and > 756 µM | > 767 µM | 108 µM and > 1000 µM | 327 | 238 µM and > 904 µM | 291 µM | 249 µM and > 856 µM | 596 µM | 250 µM and > 1000 µM |
| CC1=C(C(=O)Nc2ccc3[nH]ncc3c2)C(c2ccc(F)cc2)N=C(c2ccc(C(F)(F)F)nc2)N1 (stereo not drawn) | > 25 µM | > 25 µM | 13.2 µM | > 25 µM | 5.05 | 20.2 µM | 10.4 µM | > 25 µM | > 16.5 µM | > 25 µM | 7.45 µM | > 25 µM | > 25 µM | > 25 µM | > 23.6 | > 25 µM | 2.4 µM | 15.9 µM | 3.35 µM | 24.4 µM |
| COc1nc(N)nc2nc[nH]c12 | > 800 µM and 574 µM | > 868 µM | 747 µM and 670 µM | 500 µM and 800 µM and > 1000 µM | 603 | 500 µM and > 1000 µM | 772 µM and 585 µM | 500 µM and 800 µM and > 1000 µM | > 800 µM and 665 µM | 356 µM and > 800 µM and > 1000 µM | > 800 µM and 782 µM | > 1000 µM | 776 µM and 508 µM | 212 µM and 800 µM and > 1000 µM | > 1000 | > 1000 µM | 275 µM and 263 µM | 342 µM and 679 µM and > 929 µM | 161 µM and 299 µM | 485 µM and 579 µM and > 1000 µM |
| CN(C)[C@@H]1C(=O)C(C(=O)NCc2nc3[nH]cnc(=S)c3[nH]2)=C(O)[C@@]2(O)C(=O)C3=C(O)c4c(O)cccc4[C@@](C)(O)[C@H]3C[C@@H]12 | 5.09 µM | > 100 µM | 3.3 µM | > 100 µM | > 100 | > 100 µM | 1.05 µM | > 100 µM | > 100 µM | > 100 µM | 24.8 µM | > 100 µM | 2 µM | > 100 µM | > 100 | > 100 µM | 1.79 µM | > 100 µM | 3.69 µM | > 100 µM |
| COc1ccc([C@@H]2[C@@H](Oc3ccccc3)C(=O)N2c2cc(OC)c(OC)c(OC)c2)cc1F | 0.524 µM | > 100 µM | 0.161 µM | 2.45 µM | 0.0864 | 77.9 µM | 0.0818 µM | 1.72 µM | > 100 µM | > 100 µM | 0.0504 µM | 1.49 µM | 0.38 µM | > 100 µM | 0.175 | > 100 µM | 0.0567 µM | > 100 µM | 0.562 µM | > 100 µM |
| CNS(=O)(=O)Nc1nccc(Cc2c(C)c3ccc(Oc4ncccn4)cc3oc2=O)c1F | 0.0209 µM and 0.00869 µM | > 10 µM | 0.07 µM and 0.103 µM | > 100 µM | > 100 | > 100 µM | 0.0116 µM and 0.0113 µM | 1.63 µM and > 10 µM | < 0.01 µM and 0.00211 µM | 0.0401 µM and 0.0217 µM | 0.153 µM and 0.926 µM | 17.4 µM and > 10 µM | – | > 100 µM | > 48.4 | > 100 µM | > 58.9 µM | > 100 µM | – | > 100 µM |
| COc1cc2c(Oc3ccc(-c4cnc(Nc5ccc(F)cc5)n(C)c4=O)cc3F)ccnc2cc1OCCCN1CCOCC1 | 1.48 µM | 2.94 µM | 1.19 µM | 2.51 µM | 0.933 | 3.4 µM | 0.442 µM | 1.82 µM | 0.291 µM | 1.41 µM | 1.45 µM | 2.77 µM | 1.84 µM | 3.39 µM | 2.03 | 4.52 µM | 0.61 µM | 1.91 µM | 0.906 µM | 2.21 µM |
